Measured values taken from publication PMC8426299, “Effect of severe renal impairment on the pharmacokinetics of brigatinib” (Investigational New Drugs, 2021).
Where two headings read alike, the source gives them in different places.

What was measured:
[1] = parameters: method as in ref 11 = [11]; PMID 31287236; doi:10.1002/cpdd.723; 11. Tugnait M Gupta N Hanley MJ Sonnichsen D Kerstein D Dorer DJ Venkatakrishnan K Narasimhan N Effects of strong CYP2C8 or CYP3A inhibition and CYP3A induction on the pharmacokinetics of brigatinib; details: cited from earlier work
[2] = Open-label single-dose (brigatinib 90 mg oral, fasting) plasma pharmacokinetic study, severe renal impairment vs matched healthy volunteers; type: in vivo, human; parameters: Cmax,u LS Mean (SE): unit not given beside the values; details: for half-life / Cmax: human, plasma, 90 mg; for half-life: oral, after a single dose, read-out: mean t1/2 (converted); for Cmax: po, read-out: total brigatinib Cmax, geometric mean (CV%); for Cmax / Tmax, median (range): single oral 90 mg; for V/F,u, geometric mean (geometric % CV): unbound apparent volume of distribution; for Cmax,u, Range / Cmax,u, geometric mean (geometric % CV): unbound
Experimental: This was an open-label, parallel-group study that enrolled patients with severe renal impairment and matched healthy volunteers with normal renal function. The study consisted of a 28-day screening period and a single nine-day inpatient treatment period (day − 1 to day 8). On the morning of day 1, each participant received a single oral dose of brigatinib 90 mg under fasting conditions.Participants were required to abstain from food for approximately 10 h prior to study drug administration and for approximately four hours postdose, with the exception of the standardized snack. Due to the high prevalence of diabetes in patients with severe renal impairment, the standardized snack (not high fat or high calorie) was given to all participants at 2.5 h postdose. Water was permitted ad libitum except for one hour prior to dosing and for approximately one hour postdose. Participants underwent end-of-study procedures and were discharged from the clinical site on day 8.
Healthy volunteers with normal renal function (eGFR ≥ 90 mL/min/1.73 m^2) were matched to patients with severe renal impairment by age (± 10 years), sex, body mass index (BMI; ±15 % at screening), and if possible, smoking habits. Patients with severe renal impairment were defined as those with an eGFR < 30 mL/min/1.73 m^2. eGFR was calculated using the Modification of Diet in Renal Disease equation (MDRD). Estimated creatinine clearance was based on the Cockcroft-Gault equation.
Blood samples were collected before brigatinib administration (predose) and at 0.5, 1, 1.5, 2, 2.5, 3, 4, 6, 8, 12, 24, 36, 48, 60, 72, 96, 120, 144, and 168 h after brigatinib administration to determine plasma brigatinib concentrations. Urine was collected predose and during intervals (0–8, 8–12, 12–24, 24–48, 48–72, 72–96, 96–120, and 120–168 h) after brigatinib administration to determine urine brigatinib concentrations. Urine samples were subsequently diluted 50:50 (v:v) urine:isopropanol at the clinical site.
Plasma and urine samples were analyzed by Charles River Laboratories, Inc. (Worcester, MA, USA) by LC-MS/MS, as previously reported. Plasma samples were analyzed using a dual-range assay with a lower limit of quantitation of 0.100 ng/mL and an upper limit of 2500 ng/mL [11]. Urine samples were analyzed using a single-range assay with a lower limit of quantitation of 25.0 ng/mL and upper limit of 2500 ng/mL [11].
(§1) Individual participant plasma concentration-time profiles were analyzed via noncompartmental analysis methods using Phoenix WinNonlin (version 6.4) to estimate PK parameters. Plasma PK parameters calculated for brigatinib included maximum observed plasma concentration (Cmax); Tmax; area under the plasma concentration-time curve from time zero to the time of the last measurable concentration (AUC0 − last); AUC from time zero to infinity (AUC0−∞); terminal elimination half-life (t1/2); apparent oral clearance (CL/F); and apparent volume of distribution (V/F). The fraction of unbound brigatinib in plasma was determined using the following formula: % free (unbound) = [free brigatinib concentration measured in buffer after RED]/[total concentration measured in plasma] X 100. Unbound brigatinib plasma PK parameters (except unbound CL/F and V/F, which were calculated as total CL/F or total V/F divided by the overall mean fraction unbound) were calculated using the following formula: unbound PK parameter = (parameter based on total concentrations) x (individual participant’s overall mean fraction unbound value). Urinary PK parameters included the amount of brigatinib excreted from time zero to time t (Ae0 − t,), fraction of the dose excreted (%) from time zero to time t (Fe0 − t), and renal clearance (CLR).
Descriptive statistics, including number of observations (n), arithmetic mean, standard deviation (SD), coefficient of variation (CV%), median, minimum, and maximum, were calculated for each time point for brigatinib plasma concentrations in each study group. […]

plasma protein = experiment: Plasma protein binding of brigatinib by rapid equilibrium dialysis (RED) of participants' plasma samples; type: in vitro ADME, human
Experimental: (§2) Blood samples were collected at 2, 8, and 24 h after brigatinib administration to determine the plasma protein binding of brigatinib.
(§3) Free brigatinib in plasma samples was separated from protein-bound brigatinib by dialyzing the samples across a semipermeable dialysis membrane (8000-Da mass cutoff) using Thermo Scientific™ Single-Use RED (rapid equilibrium dialysis) Plates. For each RED dialysis unit, an aliquot (200 µL) of plasma was transferred into the donor chamber and an aliquot (350 µL) of warm (37 °C) phosphate buffered saline (PBS) was transferred into the receiver chamber of the dialysis unit. The RED devices were incubated at 37 °C with gentle shaking (250 rpm on a rotator shaker) for six hours. A 125-µL aliquot of plasma and 150-µL aliquot of PBS were removed from the dialysis unit and matrix-matched to a final composition of 50:50 (v:v) plasma:PBS, in Rain-X® treated 96-well plates. The matrix-matched samples were immediately frozen at − 80 °C. The protein binding assay and sample analysis were conducted at Charles River Laboratories, Inc. (Worcester, MA, USA). Samples were analyzed for brigatinib concentrations using liquid chromatography with tandem mass spectrometry (LC-MS/MS) methods that have been previously reported using a dual-range assay with a lower limit of quantitation of 0.100 ng/mL and an upper limit of quantitation of 500 ng/mL.
as §1

[3] = as above; type: in vitro ADME, human; details: human, plasma samples of dosed participants, averaged over 2, 8, 24 h postdose, read-out: overall mean (SD) fraction unbound (converted)
Experimental: as §2, §3, §1

native EML4-ALK = test system: native EML4-ALK; parameters: method as in PMID 27780853; details: compared with crizotinib, ceritinib, and alectinib; nonclinical studies; cited from earlier work
[4] = Severe Renal Impairment (n = 8)
[5] = healthy volunteers with normal renal function
[6] = patients with severe renal impairment
[7] = severe renal impairment compared with normal renal function

COc1cc(N2CCC(N3CCN(C)CC3)CC2)ccc1Nc1ncc(Cl)c(Nc2ccccc2P(C)(C)=O)n1 [brigatinib]
decrease of systemic exposure (AUC) ([1]; coadministration of strong CYP3A inducers): 80%
increase of systemic exposure (AUC) ([1]; coadministration of strong CYP3A inhibitors): 101%
effect on systemic exposure (AUC) ([1]; coadministration with a strong inhibitor of CYP2C8): did not meaningfully affect
V/F,u, Range ([2]; Normal Renal Function (n = 8)): 5898–13,744 L
V/F,u, Range [2, 4]: 3556 to 8914 L
Cmax,u LS Mean (SE) ([2]; Severe renal impairment vs. Normal renal function): 0.130 (0.1330)
half-life [2, 5]: ~42 h
half-life [2, 6]: ~54 h
Cmax [2, 5]: 362 ng/mL
Cmax [2, 6]: 471 ng/mL
Tmax, median (range) ([2]; normal renal function group): 2.0 (1.0–4.0) hours
total brigatinib AUC0 − last, percent higher [2, 7]: more than 100%
total brigatinib AUC0−∞, percent higher [2, 7]: more than 100%
Tmax, median (range) ([2]; severe renal impairment group): 2.5 (1.0–3.0) hours
unbound brigatinib AUC0 − last, percent higher ([2]; severe renal impairment versus normal renal function): 77%
V/F,u, geometric mean (geometric % CV) ([2]; Normal Renal Function (n = 8)): 8327 (30.4) L
V/F,u, geometric mean (geometric % CV) [2, 4]: 5532 (31.4) L
Cmax,u, Range ([2]; Normal Renal Function (n = 8)): 23.9 to 45.3 ng/mL
Cmax,u, geometric mean (geometric % CV) ([2]; Normal Renal Function (n = 8)): 32.29 (25.1) ng/mL
Cmax,u, Range [2, 4]: 25.2 to 55.6 ng/mL
Cmax,u, geometric mean (geometric % CV) [2, 4]: 36.76 (29.0) ng/mL
concentration dependence of protein binding (plasma protein; mean fraction unbound at 2, 8, 24 h postdose, both renal function groups): not concentration-dependent
effect of severe renal impairment on brigatinib plasma protein binding (plasma protein; severe renal impairment vs normal renal function): no effect
fraction unbound at 6 h [3, 5]: 0.09
fraction unbound at 6 h [3, 6]: 0.08
potency and selectivity as inhibitor of native EML4-ALK (native EML4-ALK): more potent and selective inhibitor of native EML4-ALK
